According to patent US10179770B2, “Quinolines derivatives as novel anticancer agents” (GENOSCIENCE PHARMA, priority 2013, dated 2019):

Experiments:
Experiment in all cases: NCI-60 screen (SRB)
Format in all cases: cell-based
[1] = test system: TK-10; conditions: TK-10 (Renal)
Experimental: (§1) The human tumor cell lines of the cancer screening panel are grown in RPMI 1640 medium containing 5% fetal bovine serum and 2 mM L-glutamine. For a typical screening experiment, cells are inoculated into 96 well microtiter plates in 100 μL at plating densities ranging from 5,000 to 40,000 cells/well depending on the doubling time of individual cell lines. After cell inoculation, the microtiter plates are incubated at 37° C., 5% CO2, 95% air and 100% relative humidity for 24 h prior to addition of experimental drugs.
(§2) After 24 h, two plates of each cell line are fixed in situ with TCA, to represent a measurement of the cell population for each cell line at the time of drug addition (Tz). Experimental drug is solubilized in dimethyl sulfoxide at 400-fold the desired final maximum test concentration and stored frozen prior to use. At the time of drug addition, an aliquot of frozen concentrate is thawed and diluted to twice the desired final maximum test concentration with complete medium containing 50 μg/ml gentamicin. Additional four, 10-fold or ½ log serial dilutions are made to provide a total of five drug concentrations plus control. Aliquots of 100 μl of these different drug dilutions are added to the appropriate microtiter wells already containing 100 μl of medium, resulting in the required final drug concentrations.
(§3) Following drug addition, the plates are incubated for an additional 48 h at 37° C., 5% CO2, 95% air, and 100% relative humidity. For adherent cells, the assay is terminated by the addition of cold TCA. Cells are fixed in situ by the gentle addition of 50 μl of cold 50% (w/v) TCA (final concentration, 10% TCA) and incubated for 60 minutes at 4° C. The supernatant is discarded, and the plates are washed five times with tap water and air dried. Sulforhodamine B (SRB) solution (100 μl) at 0.4% (w/v) in 1% acetic acid is added to each well, and plates are incubated for 10 minutes at room temperature. After staining, unbound dye is removed by washing five times with 1% acetic acid and the plates are air dried. Bound stain is subsequently solubilized with 10 mM trizma base, and the absorbance is read on an automated plate reader at a wavelength of 515 nm. For suspension cells, the methodology is the same except that the assay is terminated by fixing settled cells at the bottom of the wells by gently adding 50 μl of 80% TCA (final concentration, 16% TCA). Using the seven absorbance measurements [time zero, (Tz), control growth, (C), and test growth in the presence of drug at the five concentration levels (Ti)], the percentage growth is calculated at each of the drug concentrations levels.
(§4) Percentage growth inhibition is calculated as: [(Ti−Tz)/(C−Tz)]×100 for concentrations for which Ti>/=Tz (1) [(Ti−Tz)/Tz]×100 for concentrations for which Ti<Tz (2)
(§5) Growth inhibition of 50% (GI50) is calculated from [(Ti−Tz)/(C−Tz)]×100=50 (3)
(§6) which is the drug concentration resulting in a 50% reduction in the net protein increase (as measured by SRB staining) in control cells during the drug incubation.
(§7) The drug concentration resulting in total growth inhibition (TGI) is calculated from Ti=Tz (4)
(§8) The LC50 (concentration of drug resulting in a 50% reduction in the measured protein at the end of the drug treatment as compared to that at the beginning) indicating a net loss of cells following treatment is calculated from [(Ti−Tz)/Tz]×100=−50 (5)
(§9) Values are calculated for each of these three parameters if the level of activity is reached; however, if the effect is not reached or is exceeded, the value for that parameter is expressed as greater or less than the maximum or minimum concentration tested.

[2] = test system: NCI-H322M; conditions: NCI-H322M (Non-Small Cell Lung)
Experimental: as §1, §2, §3, §4, §5, §6, §7, §8, §9

[3] = test system: SF-295; conditions: SF-295 (CNS)
Experimental: as §1, §2, §3, §4, §5, §6, §7, §8, §9

[4] = test system: Colo205; conditions: COLO205 (Colon)
Experimental: as §1, §2, §3, §4, §5, §6, §7, §8, §9

[5] = test system: MCF7; conditions: MCF7 (Breast)
Experimental: as §1, §2, §3, §4, §5, §6, §7, §8, §9

[6] = test system: MALME-3M; conditions: MALME-3M (Melanoma)
Experimental: as §1, §2, §3, §4, §5, §6, §7, §8, §9

[7] = test system: MOLT-4; conditions: MOLT-4 (Leukemia)
Experimental: as §1, §2, §3, §4, §5, §6, §7, §8, §9

[8] = test system: DU-145; conditions: DU-145 (Prostate)
Experimental: as §1, §2, §3, §4, §5, §6, §7, §8, §9

[9] = test system: SF-539; conditions: SF-539 (CNS)
Experimental: as §1, §2, §3, §4, §5, §6, §7, §8, §9

[10] = test system: A498; conditions: A498 (Renal)
Experimental: as §1, §2, §3, §4, §5, §6, §7, §8, §9

[11] = test system: M14; conditions: M14 (Melanoma)
Experimental: as §1, §2, §3, §4, §5, §6, §7, §8, §9

[12] = test system: SK-MEL-2; conditions: SK-MEL-2 (Melanoma)
Experimental: as §1, §2, §3, §4, §5, §6, §7, §8, §9

[13] = test system: SK-MEL-5; conditions: SK-MEL-5 (Melanoma)
Experimental: as §1, §2, §3, §4, §5, §6, §7, §8, §9

[14] = test system: ACHN; conditions: ACHN (Renal)
Experimental: as §1, §2, §3, §4, §5, §6, §7, §8, §9

[15] = test system: LOX IMVI; conditions: LOX IMVI (Melanoma)
Experimental: as §1, §2, §3, §4, §5, §6, §7, §8, §9

[16] = test system: OVCAR-8; conditions: OVCAR-8 (Ovarian)
Experimental: as §1, §2, §3, §4, §5, §6, §7, §8, §9

[17] = test system: SK-MEL-28; conditions: SK-MEL-28 (Melanoma)
Experimental: as §1, §2, §3, §4, §5, §6, §7, §8, §9

[18] = Homo sapiens, read-out: LC50 (the source's name)

CC(C)(C)NC1CCN(c2cc(-c3ccc(Cl)cc3)nc3ccccc23)CC1.Cl.Cl [XII-4, 2-(4-chloro-phenyl)-4-(4-N-tert-butylamino-piperidin-1-yl)quinoline dihydrochloride]
Growth percent at 10 μM [1]: − (cell growth % > 80)
Growth percent at 10 μM [2]: ++ (cell growth 40 > % < 60)
Growth percent at 10 μM [3]: − (cell growth % > 80)
Growth percent at 10 μM [4]: ×××× (cell growth −60 < % > −80)
Growth percent at 10 μM [5]: ++ (cell growth 40 > % < 60)
Growth percent at 10 μM [6]: ××× (cell growth −40 < % > −60)
Growth percent at 10 μM [7]: ++ (cell growth 40 > % < 60)
Growth percent at 10 μM [8]: − (cell growth % > 80)
Growth percent at 10 μM [9]: ++ (cell growth 40 > % < 60)
Growth percent at 10 μM [10]: +++ (cell growth 20 > % < 40)
Growth percent at 10 μM [11]: ×××× (cell growth −60 < % > −80)
Growth percent at 10 μM [12]: − (cell growth % > 80)
Growth percent at 10 μM [13]: ++++ (cell growth 0 > % < 20)
Growth percent at 10 μM [14]: + (cell growth 60 > % < 80)
Growth percent at 10 μM [15]: ++++ (cell growth 0 > % < 20)
Growth percent at 10 μM [16]: − (cell growth % > 80)
Growth percent at 10 μM [17]: ×××× (cell growth −60 < % > −80)

CCN(CC)C1CCN(C(C)c2cc(-c3ccccc3)nc3ccccc23)CC1.Cl.Cl (stereo not shown) [XIX-3, 2-phenyl-4-{1-[4-(N,N-diethylamino)piperidin-1-yl]-eth-1-yl}quinoline dihydrochloride]
GI50 ([1]; Homo sapiens): 13 µM
LC50 (concentration causing 50% net cell kill) ([1]; Homo sapiens): 26 µM
TGI [1]: 26 µM
Growth percent at 10 μM [1]: − (cell growth % > 80)
GI50 ([2]; Homo sapiens): 11 µM
CC50 [2, 18]: 52 µM
TGI [2]: 24 µM
Growth percent at 10 μM [2]: + (cell growth 60 > % < 80)
GI50 ([3]; Homo sapiens): 4 µM
CC50 [3, 18]: 48 µM
TGI [3]: 15 µM
Growth percent at 10 μM [3]: − (cell growth % > 80)
TGI [4]: 4 µM
Growth percent at 10 μM [4]: ××× (cell growth −40 > % < −60)
GI50 ([4]; Homo sapiens, COLO 205): 2 µM
CC50 ([4]; Homo sapiens, COLO 205, read-out: LC50 (the source's name)): 7 µM
GI50 ([5]; Homo sapiens): 8 µM
LC50 (50% lethal concentration) ([5]; Homo sapiens): 56 µM
TGI [5]: 22 µM
Growth percent at 10 μM [5]: ++ (cell growth 40 > % < 60)
GI50 ([6]; Homo sapiens): 2 µM
CC50 [6, 18]: 7 µM
TGI [6]: 4 µM
Growth percent at 10 μM [6]: ×× (cell growth −20 > % < −40)
GI50 ([7]; Homo sapiens): 4 µM
CC50 [7, 18]: 49 µM
TGI [7]: 15 µM
Growth percent at 10 μM [7]: ++++ (cell growth % < 20)
TGI [8]: 28 µM
Growth percent at 10 μM [8]: − (cell growth % > 80)
GI50 ([8]; Homo sapiens): 14 µM
CC50 [8, 18]: 54 µM
GI50 ([9]; Homo sapiens): 11 µM
CC50 [9, 18]: 50 µM
TGI [9]: 23 µM
Growth percent at 10 μM [9]: ++ (cell growth 40 > % < 60)
TGI [10]: 20 µM
Growth percent at 10 μM [10]: ++ (cell growth 40 > % < 60)
GI50 ([10]; Homo sapiens): 5 µM
LC50 ([10]; Homo sapiens): 54 µM
GI50 ([11]; Homo sapiens): 2 µM
CC50 [11, 18]: 8 µM
TGI [11]: 4 µM
Growth percent at 10 μM [11]: ××× (cell growth −40 > % < −60)
GI50 ([12]; Homo sapiens): 3 µM
CC50 [12, 18]: 27 µM
TGI [12]: 7 µM
Growth percent at 10 μM [12]: ++ (cell growth 40 > % < 60)
GI50 ([13]; Homo sapiens): 2 µM
CC50 [13, 18]: 6 µM
TGI [13]: 3 µM
Growth percent at 10 μM [13]: ××××× (cell growth % < −80)
TGI [14]: 23 µM
Growth percent at 10 μM [14]: + (cell growth 60 > % < 80)
GI50 ([14]; Homo sapiens): 11 µM
LC50 (concentration causing 50% net cell kill) ([14]; Homo sapiens): 50 µM
GI50 ([15]; Homo sapiens): 4 µM
CC50 [15, 18]: 44 µM
TGI [15]: 15 µM
Growth percent at 10 μM [15]: ++ (cell growth 40 > % < 60)
GI50 ([16]; Homo sapiens): 14 µM
CC50 [16, 18]: 62 µM
TGI [16]: 30 µM
Growth percent at 10 μM [16]: + (cell growth 60 > % < 80)
GI50 ([17]; Homo sapiens): 2 µM
CC50 [17, 18]: 6 µM
TGI [17]: 3 µM
Growth percent at 10 μM [17]: ××× (cell growth −40 > % < −60)
